In article PMC12406203 (Journal of Medicinal Chemistry, 2025):

Legend:
[1] = tested on: mice (motor coordination); settings: already at the dose of 1 mg/kg, as shown previously; cited from earlier work
[2] = PAMPA
LPS-treated mice = assay: Morris water maze task, LPS model of neuroinflammation; type: in vivo
Procedure: The compounds were administered for 10 consecutive days, and on the last 6 days of their administration, LPS was also administered intraperitoneally 5 h before the test compounds. On these 6 days, the acquisition phase of the MWM task was performed. One day later, the retention, drug-off trial of the MWM task was carried out.
In the LPS model adult male C57BL/6J mice (Animal Breeding Farm of the Faculty of Pharmacy, Jagiellonian University Medical College) of similar weight and age were used. […] The mice had unlimited access to food and water prior to the experiment. Specified conditions for the maintenance of mice were ensured throughout the experiment, including tree bedding (Transwior, Poland) and cage enrichment (tunnels, nesting material, wooden igloos, etc.). For behavioral tests, the mice were selected randomly; each group consisted of 7–10 mice. […] After in vivo tests, the animals were immediately euthanized, and their tissues were collected and stored for further ex vivo testing.
LPS (Lipopolysaccharide from Escherichia coli O111:B4, Sigma-Aldrich, Poland) was used to induce neuroinflammation in mice. […] They were administered intraperitoneally (i.p.) 60 min before the acquisition trial of the PA, NOR, and MWM tasks. […] In the rotarod, locomotor activity, and MWM tests, only one dose effective in the scopolamine model of amnesia was evaluated.
The Morris water maze is a circular, plastic, and gray-painted pool (120 cm in diameter and 60 cm in height), filled with water (up to about 48 cm below the edge to prevent an animal from jumping out), maintained at 23 ± 1 °C. The pool was divided into four equal quadrants (compass locations: NE, NW, SE, SW) by a computerized video tracking system (SMART, ver. 3.0; Panlab, Spain). An escape platform (11 cm in diameter and 47 cm in height) at a fixed location (the center of the NW quadrant, i.e., the target quadrant) was made of transparent Plexiglas, being invisible to the swimming animal, and was immersed 1 cm under the surface of water. The maze was lighted with an intensity of 45 lx. […] The time taken to reach the hidden platform (escape latency) on days 1–6 was recorded for each mouse and analyzed. Each animal was released from a different starting point and was allowed to swim for 60 s. […] On the seventh day (a drug-off trial conducted 24 h after the last training trial), the platform was removed from the pool, and a probe trial was performed (without drug treatmentassessment of memory retention).

[3] = tested on: TLR4, COX-2, NLRP3, cPLA2 levels in brains of LPS-treated mice; assay: Western blot of brains of LPS-treated mice (ex vivo); type: in vivo; settings: 94, 95: 10 mg/kg i.p.; rivastigmine 1 mg/kg i.p.; vs LPS-treated control
Procedure: After the completion of cognitive assays carried out in the LPS model, the mice were sacrificed, and their brains were collected and stored for further analysis. In the ex vivo part of the study, murine brains were homogenized using T-PER mammalian protein extraction reagent (Thermo Fisher Scientific, Waltham, MA, USA) with protease (Merck Millipore, Burlington, MA, USA) and phosphatase inhibitors (Cayman Chemical, Ann Arbor, MI, USA). The total protein concentrations were determined using the Bradford reaction. Forty μg of the total proteins were solubilized in Laemmli buffer with 2% 2-mercaptoethanol and were subject to 10% SDS-polyacrylamide gel electrophoresis. The anticyclooxygenase 2 (COX-2, diluted 1:1000), antitoll-like receptor 4 (TLR4, diluted 1:1000), anticytosolic phospholipase A2 (cPLA2, 1:1000), and anti-inflammasome (NLPR3, diluted 1:500) were used (Thermo Fisher Scientific, Waltham, MA, USA). The endogenous control was β-actin (1:1000) (Thermo Fisher Scientific, Waltham, MA, USA). The secondary antibody was antirabbit IgG (HRP) diluted 1:2000 (Thermo Fisher Scientific, Waltham, MA, USA). Proteins were detected using the Clarity Western ECL Luminol Substrate (Bio-Rad, Hercules, CA, USA). Chemi Doc Camera with Image Lab 6.1 software (Bio-Rad) was used to quantify the integrated optical density of the bands. The results were normalized to the data obtained for β-actin after stripping the PVDF membrane using Restore Western Blot Stripping Buffer (Thermo Fisher Scientific, Waltham, MA, USA) and expressed as relative to the control. This thorough process ensures the validity and reliability of the results.

[4] = tested on: scopolamine-induced cognitive deficits in mice; settings: scopolamine-induced memory-impaired mice; doses of 1 and 2.5 mg/kg; reported previously; cited from earlier work
[5] = Pharmacokinetic study in mice; settings: for Kp: brain/serum; for half-life: serum and brain
Procedure: In this study, male CD-1 mice weighing 27–34 g housed in conditions of constant temperature with a 12:12 h light-dark cycle with free access to food and water were used. Both tested and reference compounds were suspended in 1% Tween in water for injection (Polpharma, Poland) and administered intraperitoneally (i.p.). The mice were sacrificed by decapitation under isoflurane anesthesia at different time points following compound administration. Brains were harvested at the same time points. Blood was allowed to clot at room temperature for 20 min, and serum was separated by centrifugation at 8 000g (Eppendorf MiniSpin centrifuge, Germany) for 10 min. All samples were stored at −80 °C until analysis.
The analytical workflow employed a Sciex QTRAP 4500 triple quadrupole mass spectrometer interfaced with an Exion LC AC HPLC system (Danaher Corporation, USA). Chromatographic separation was achieved on an XBridge C18 column (3 × 50 mm, 5 μm; Waters, USA), utilizing a mobile phase composed of acetonitrile and water both containing 0.1% formic acid. The column temperature was maintained at 40 °C, and a gradient elution protocol (Table S10) was implemented to ensure optimal analyte resolution and retention times. Mass spectrometric detection was conducted in unit resolution mode, with ion transitions specified in Table S11. […] Valsartan served as the internal standard and was monitored at m/z 436 → 207 (collision energy = 42 eV). Positive electrospray ionization (ESI+) was employed to enhance detection sensitivity. Ion path parameters (Table S11) were optimized via direct infusion of analyte solutions (7 μL/min) using a syringe pump. The optimized source conditions included an ion spray voltage of 5500 V, a source temperature of 450 °C, curtain gas pressure at 20 psi, and medium collision gas pressure. […] No significant matrix effects or stability concerns were observed during routine sample analysis. Data acquisition and processing were carried out using Analyst software version 1.7.
Serial dilutions were performed to generate working solutions ranging from 0.01 to 20 μg/mL, corresponding to final calibration concentrations of 0.001–2 μg/mL. For calibration curve construction, 5 μL of each working solution was spiked into 45 μL of the relevant biological matrix (serum or brain homogenate) and vortexed for 10 s. Sample preparation involved protein precipitation, in a 1:3 (v/v) ratio, using acetonitrile containing 0.1% formic acid and the internal standard. The mixtures were agitated for 10 min using an IKA Vibrax VXR shaker (Germany), followed by centrifugation at 8000 × g for 5 min (Eppendorf miniSpin, Germany). The resulting supernatants were transferred to chromatographic vials for analysis.
Brain tissues were homogenized in distilled water at a 1:4 (w/v) ratio using an ULTRA-TURRAX T10 basic homogenizer (IKA, Germany). Aliquots of brain homogenate or serum (50 μL) were subjected to protein precipitation in a 1:3 (v/v) ratio with acetonitrile containing 0.1% formic acid and the internal standard. The mixtures were agitated for 10 min using an IKA Vibrax VXR shaker (Germany), followed by centrifugation at 8000 × g for 5 min (Eppendorf miniSpin, Germany). The resulting supernatants were directly transferred to chromatographic vials for analysis. In cases where analyte concentrations in serum exceeded 20 μg/mL, samples were diluted with blank matrix prior to the deproteinization step. The autosampler was maintained at 15 °C, and a 1 μL aliquot was injected onto the analytical column.
Pharmacokinetic parameters were estimated using the noncompartmental analysis (NCA). The maximum concentration (C max) and the time to reach maximum concentration (t max) in serum and brain were obtained directly from the concentration versus time data.

[6] = tested on: scopolamine-induced cognitive deficits in mice; settings: 1 and 2.5 mg/kg doses; as shown previously; cited from earlier work
[7] = tested on: mice (motor coordination); assay: Rotarod test; settings: 6, 18, and 24 rpm; all mice of the group
Procedure: For behavioral tests, the mice were selected randomly; each group consisted of 7–10 mice.
In the rotarod, locomotor activity, and MWM tests, only one dose effective in the scopolamine model of amnesia was evaluated.
Three days before the rotarod test, the mice were trained on the rotarod apparatus (Rotarod apparatus, May Commat RR0711, Turkey; rod diameter: 2 cm) that was rotated at a fixed speed of 18 rpm. In each training session, the mice were placed on the rotating rod for 3 min with an unlimited number of trials. The proper experiment was performed 24 h after the last training trial. […] Motor impairments in mice were defined as the inability to remain on the rotarod apparatus for 1 min. The results are expressed as the mean time spent on the rotarod.

[8] = tested on: scopolamine-induced cognitive deficits in mice; assay: Passive avoidance task, scopolamine-induced amnesia; type: in vivo; settings: 1–30 mg/kg i.p.
Excerpt: (§1) In the scopolamine model, the PA and NOR tasks were used for dose selection for further testing.
The mice had unlimited access to food and water prior to the experiment. Specified conditions for the maintenance of mice were ensured throughout the experiment, including tree bedding (Transwior, Poland) and cage enrichment (tunnels, nesting material, wooden igloos, etc.). For behavioral tests, the mice were selected randomly; each group consisted of 7–10 mice.
(§2) Scopolamine hydrobromide (Sigma-Aldrich, Poland) at the dose of 1 mg/kg was used to induce learning and memory deficits. For the in vivo tests, scopolamine was prepared in distilled water (Polfa Kutno, Poland) and was administered subcutaneously (s.c.) 30 min before behavioral tests during the acquisition (training) trial of PA and NOR tasks. […] They were administered intraperitoneally (i.p.) 60 min before the acquisition trial of the PA, NOR, and MWM tasks.
The PA apparatus (Panlab Harvard Apparatus, Spain) consists of a large white-colored illuminated compartment (26 cm × 26 cm × 34 cm) and a small black-colored compartment (13 cm × 7.5 cm × 7.5 cm), which are separated from each other by a guillotine gate (5 cm × 5 cm). The PA task is divided into two trials (i.e., the acquisition trial and the retention trial), each conducted 24 h apart. On the first day, during the acquisition trial (a conditioning phase), the test compounds (94 and 95, neflamapimod and vehicle) were injected. Also, before the acquisition trial, scopolamine or LPS was administered at selected time points. Then, each mouse was placed into the white compartment, and a 30 s habituation period began (guillotine gate is closed). After that, the guillotine gate was opened, and the mice were tested during the 180 s testing period. As soon as the mouse entered the black compartment of the PA device, the guillotine gate was closed and an electrical shock (intensity: 0.2 mA, duration: 2 s) was automatically applied through the grid floor. For each mouse, the latency between the opening of the guillotine gate and the mouse’s entering the black compartment was measured. On the next day, during the retention (drug-off) trial, the mice were placed again into the white compartment for a 30 s habituation period, and the latency to enter the black compartment was measured for each mouse.

[9] = tested on: scopolamine-induced cognitive deficits in mice; assay: Novel object recognition task, scopolamine-induced amnesia; type: in vivo; settings: 1, 10, and 30 mg/kg i.p.; scopolamine model
Excerpt: as §1
The mice had unlimited access to food and water prior to the experiment. Specified conditions for the maintenance of mice were ensured throughout the experiment, including tree bedding (Transwior, Poland) and cage enrichment (tunnels, nesting material, wooden igloos, etc.). For behavioral tests, the mice were selected randomly; each group consisted of 7–10 mice. […] The procedures for maintenance and treatment of laboratory animals were approved by the first Local Ethics Committee in Krakow (Approval No. 645/2022, 760/2023, and 829/2024 and the treatment of animals was in full accordance with ethical standards laid down in respective Polish and EU regulations (Directive 2010/63/EU).
as §2
The experiment was conducted in opaque black boxes with dimensions of 50 × 50 × 50 cm. The 3 day procedure consists of habituation to the test arena (without any objects) for 10 min on the first day (T0), a training trial (T1), and a testing trial (T2) separated by a 24 h intertrial interval. During T1 (familiarization trial), two identical objects (A and B) were presented in the opposite corners of the arena, approximately 5 cm from its walls. During T2 (recognition trial), one of the objects (B) was replaced by a novel object (C), so that the animals were presented with A (familiar) and C (novel) objects. Both T1 and T2 trials lasted for 10 min, and after each trial, the animals returned to their home cages. White plastic round containers (height 5 cm, diameter 5 cm) attached to the ground with double-sided tape were used as the A, B objects, and green cuboids of similar height were used as object C. The objects were stable enough so that the animals could not displace them. The sequence of presentations and the location of the objects were randomly assigned to each mouse. The animals explored the objects by looking, licking, sniffing, or touching them while sniffing, but not when leaning against, standing, or sitting on the objects. Any mouse exploring the two objects for less than 5 s within the 10 min duration of T1 or T2 was eliminated from the study. An experimenter, blind to the drug treatment, measured the exploration time of the objects.

PBMCs = assay: Cytokine release from PHA-stimulated PBMCs; type: cell-based, human; settings: 1, 2.5, and 5 μM, 18 h
Procedure: Human PBMCs from healthy donors were isolated from heparinized blood by density gradient centrifugation with Ficoll-Paque. The isolated cells were washed twice with PBS, resuspended in RPMI 1640 medium (Sigma-Aldrich, St. Louis, MO, USA) supplemented with 10% heat-inactivated fetal bovine serum (Gibco), 2 mM L-glutamine (Sigma-Aldrich), 100 U/mL penicillin (Sigma-Aldrich), and 100 μg/mL streptomycin (Sigma-Aldrich), and used in the assays.
Peripheral blood mononuclear cells were seeded (500,000 cells/well) in 24-well plates in 500 μL of growth medium and treated with compounds 94, 95, and neflamapimod (1, 2.5, and 5 μM) in the presence or absence of PHA (1 μg/mL) or the corresponding vehicle (0.1% DMSO). Cell-free supernatants were collected after 18 h of incubation (37 °C, 5% CO2) and stored at −80 °C until tested. Cytokine production was determined with BD Cytometric Bead Array human inflammatory cytokines kit (BD Bioscience) on an Attune NxT flow cytometer (Thermo Fisher Scientific, Waltham, MA, USA). Standard curves were generated using recombinant cytokines contained in the kit. The data were analyzed using the FlowJo (Tree Star, Inc., Ashland, OR, USA) and Prism (GraphPad Prism 6.0, GraphPad Software) software.

[10] = tested on: mice (locomotor activity); assay: Locomotor activity test; settings: 30 mg/kg, i.p., mean ± SEM
Excerpt: The mice had unlimited access to food and water prior to the experiment. Specified conditions for the maintenance of mice were ensured throughout the experiment, including tree bedding (Transwior, Poland) and cage enrichment (tunnels, nesting material, wooden igloos, etc.). For behavioral tests, the mice were selected randomly; each group consisted of 7–10 mice. […] After in vivo tests, the animals were immediately euthanized, and their tissues were collected and stored for further ex vivo testing.
They were administered intraperitoneally (i.p.) 60 min before the acquisition trial of the PA, NOR, and MWM tasks.
The locomotor activity test was performed using activity cages (40 cm × 40 cm × 30 cm, supplied with IR beam emitters) (Activity Cage 7441, Ugo Basile, Italy) connected to a counter for the recording of light-beam interrupts. […] The animals’ movements (i.e., the number of light-beam crossings) were counted during the next 60 min of the test. Before the experiment, the mice were habituated to activity cages for 15 min.

[11] = brain, rivastigmine 2.5 mg/kg i.p., mice
[12] = male, CD-1, mouse, brain, ip, 2.5 mg/kg
[13] = male, CD-1, mouse, ip, 2.5 mg/kg
[14] = male, CD-1, mouse, serum, ip, 2.5 mg/kg
[15] = 10 mg/kg i.p., p < 0.05 vs LPS-treated control
[16] = brain, neflamapimod 30 mg/kg i.p., mice
[17] = male, CD-1, mouse, brain, ip, 30 mg/kg
[18] = male, CD-1, mouse, ip, 30 mg/kg
[19] = male, CD-1, mouse, serum, ip, 30 mg/kg

Compound: CCN(C)C(=O)Oc1cccc([C@H](C)N(C)C)c1 [rivastigmine, reference compound]
- motor side effects shortly after administration [1]: caused muscle tremor and transient motor coordination deficits
- CNS (+/–) [2]: CNS+ (key: CNS+ indicates high predicted BBB permeation [Pe (×10–6 cm/s) > 4.0]; CNS– indicates low predicted BBB permeation [Pe (×10–6 cm/s) < 2.0])
- efficacy in the LPS model of neuroinflammation accompanied by memory decline (LPS-treated mice; 1 mg/kg i.p.): not effective
- escape latency, acquisition phase of MWM (LPS-treated mice; 1 mg/kg i.p., vs LPS-treated control, transient, not on days 4–6): statistically significantly lower escape latencies were observed on day 3
- brain cPLA2 expression [3]: no difference
- brain levels of TLR4, COX-2, and NLRP3 [3]: significantly lower levels
- procognitive efficacy in PA task [4]: procognitive activity
- AUC0-∞ [5, 11]: 12082.71 ng·min/mL(g)
- AUC(0-t) [5, 11]: 11678.40 ng·min/mL(g)
- t0.5λz [5, 11]: 32.64 min
- Cmax [5, 12]: 609 ng/g
- MRT [5, 12]: 26.6 min
- Tmax [5, 12]: 5 min
- k el [5, 12]: 0.00035 s⁻¹
- Kp [5, 13]: 4.16
- half-life [5, 13]: ~30 min
- AUC(0-inf) [5, 14]: 48.4 ng·h/mL
- AUC(0-t) [5, 14]: 46.8 ng·h/mL
- CL/F [5, 14]: 860 mL/min/kg
- Cmax [5, 14]: 142 ng/mL
- MRT [5, 14]: 27.8 min
- Tmax [5, 14]: 5 min
- Vd/F [5, 14]: 37.2 L/kg
- k el [5, 14]: 0.000383 s⁻¹
- t0.5λz ([5]; serum, rivastigmine 2.5 mg/kg i.p., mice): 29.99 min
- efficacy in PA and NOR tasks [6]: effective

Compound: O=c1ncn2nc(Sc3ccc(F)cc3F)ccc2c1-c1c(Cl)cccc1Cl [neflamapimod, reference compound]
- time spent on the rotarod [7]: 60 s
- effect on scopolamine-induced memory decline in PA task [8]: did not confirm memory-improving properties
- effect in NOR task [9]: did not reveal its memory-improving properties
- time spent at the target zone (MWM day 7) (LPS-treated mice; [15]): increased
- time spent in the NW zone (MWM day 7) (LPS-treated mice; [15]): increased
- spatial learning, acquisition phase of MWM (LPS-treated mice; 10 and 30 mg/kg i.p., LPS-treated mice): effective in improving spatial learning only on day 3
- production of pro-inflammatory cytokines IL-8, IL-1β, IL-6, IL-10, and TNF-α (PBMCs): significantly inhibited
- AUC0-∞ [5, 16]: 755355.60 ng·min/mL(g)
- AUC(0-t) [5, 16]: 566796.70 ng·min/mL(g)
- t0.5λz [5, 16]: 1049.79 min
- Cmax [5, 17]: 2290 ng/g
- MRT [5, 17]: 999 min
- Tmax [5, 17]: 15 min
- k el [5, 17]: 1.1e-05 s⁻¹
- Kp [5, 18]: 0.68
- half-life [5, 18]: ~1000 min
- AUC(0-inf) [5, 19]: 18700 ng·h/mL
- AUC(0-t) [5, 19]: 14400 ng·h/mL
- CL/F [5, 19]: 27 mL/min/kg
- Cmax [5, 19]: 4090 ng/mL
- MRT [5, 19]: 903 min
- Tmax [5, 19]: 15 min
- Vd/F [5, 19]: 37.8 L/kg
- k el [5, 19]: 1.18e-05 s⁻¹
- t0.5λz ([5]; serum, neflamapimod 30 mg/kg i.p., mice): 978.45 min
- number of light-beam crossings [10]: 2481 ± 195
